Measured values taken from PMC7010297, “How the initiating ribosome copes with ppGpp to translate mRNAs” (PLoS Biology, 2020).
Several values for one entry are separate records, joined by “and”; a condition that tells them apart may be missing. Identical values can stand only once. Like-named read-outs stand apart in the source and are kept apart here.

Target: T1, IF2-bound 30S IC (Escherichia coli, UniProt P0A705)
T1 construct: 6xHis (N); made in house
Test: 30S IC formation by MST, guanosine nucleotide titration
Format: binding
Excerpt: To monitor the interaction of initiator tRNA and 30S ribosomal subunits, we used Microscale Thermophoresis (MST) with a fluorescently labelled initiator tRNA (Bpy-tRNAi) (Fig 1B). MST allows to measure fluorescence in a constrained space. Changes on the readout derive from molecular drifts resulting from small thermal equilibrium perturbations. Upon equilibrium perturbations, the patterns of Bpy-tRNAi migration away from the observation space are related to bound and unbound states (Fig 1B). […] On the contrary, a decrease in thermophoresis indicated the dissociation of Bpy-tRNAi. The relation between fluorescence measured at both equilibriums (Ff to Fi, after and prior to the perturbation, respectively) as a function of ligand concentration allowed to determine dissociation constants of the interaction (Fig 1C).
Continuous lines indicate nonlinear regression fittings with a quadratic equation. Three measurements were performed; mean and standard deviation are plotted (S1 Data). (B) as (A) to measure the concentration dependence for each tested guanosine nucleotide at constant IF2 (1 μM). […] Continuous lines show best fits using exponential functions. (D) Formation of 70S IC as measured by Bpy-tRNAi accommodation in the P site of the ribosome; 0.1 μM 30S ICs were formed with Bpy-tRNAi and rapidly mixed with 0.3 μM 50S subunits on a stopped-flow apparatus as described in [14]. Colors are as in (C). Continuous lines show best fits using an exponential function for a single reaction step. Each stopped-flow trace results from the mean of 5 to 7 replicates.
MST was calculated from the respective fluorescence time dependencies (S3 Fig). […] Symbols as in (B). […] Continuous lines indicate nonlinear regression fittings with quadratic (B and E) or same-site competition (G) functions. Three measurements were performed; mean and standard deviations are plotted (S1 Data).

T1 sequence (P0A705 whole entry, looked up): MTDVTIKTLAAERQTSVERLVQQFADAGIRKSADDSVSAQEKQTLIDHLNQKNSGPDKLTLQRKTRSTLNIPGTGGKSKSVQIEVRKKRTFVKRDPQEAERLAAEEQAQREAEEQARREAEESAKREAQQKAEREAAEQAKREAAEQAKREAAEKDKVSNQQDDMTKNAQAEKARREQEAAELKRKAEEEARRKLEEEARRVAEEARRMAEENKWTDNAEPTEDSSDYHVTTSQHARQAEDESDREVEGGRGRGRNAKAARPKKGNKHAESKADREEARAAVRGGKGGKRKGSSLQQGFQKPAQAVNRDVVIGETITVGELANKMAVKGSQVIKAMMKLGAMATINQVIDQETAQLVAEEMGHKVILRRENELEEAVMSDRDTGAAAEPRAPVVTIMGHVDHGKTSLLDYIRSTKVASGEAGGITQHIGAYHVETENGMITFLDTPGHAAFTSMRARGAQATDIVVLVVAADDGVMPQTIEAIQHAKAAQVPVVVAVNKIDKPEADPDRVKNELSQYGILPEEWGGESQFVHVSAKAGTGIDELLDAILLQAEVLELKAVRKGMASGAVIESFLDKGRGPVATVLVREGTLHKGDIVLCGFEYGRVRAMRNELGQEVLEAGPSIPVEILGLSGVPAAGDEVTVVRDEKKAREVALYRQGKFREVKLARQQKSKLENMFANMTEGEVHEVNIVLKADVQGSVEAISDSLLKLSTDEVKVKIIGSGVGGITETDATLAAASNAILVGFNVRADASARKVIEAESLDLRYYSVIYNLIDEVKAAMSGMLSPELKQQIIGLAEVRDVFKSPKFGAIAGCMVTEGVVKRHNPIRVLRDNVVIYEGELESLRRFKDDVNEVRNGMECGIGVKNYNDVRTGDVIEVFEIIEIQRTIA

## Nc1nc2c(ncn2[C@@H]2O[C@H](COP(=O)(O)OP(=O)(O)OP(=O)(O)O)[C@@H](O)[C@H]2O)c(=O)[nH]1 [GTP, guanosine triphosphate]
Fig 2B, nucleotide 10.00 µM
  MST Average: 1023.06 a.u.
  MST Replicates (a.u.): 1019.11 a.u. and 1024.56 a.u. and 1025.50 a.u.
Fig 2B, nucleotide 20.00 µM
  MST Average: 1004.40 a.u.
  MST Replicates (a.u.): 999.60 a.u. and 1006.70 a.u. and 1006.89 a.u.
KD of GTP for the 30S IC, 30S IC programmed with mInfA
  Kd: 1900 ± 200 nM
KD of GTP for the 30S IC, 30S IC programmed with mTufA
  Kd: 280 ± 40 nM
mInfA, GTP 0.061 μM
  MST Average: 967.92 a.u.
  MST Replicates (a.u.): 966.87 a.u. and 968.59 a.u. and 968.30 a.u.
mInfA, GTP 0.122 μM
  MST Average: 967.19 a.u.
  MST Replicates (a.u.): 972.17 a.u. and 974.24 a.u. and 955.18 a.u.
mInfA, GTP 0.244 μM
  MST Average: 974.83 a.u.
  MST Replicates (a.u.): 973.77 a.u. and 975.34 a.u. and 975.39 a.u.
mInfA, GTP 1.953 μM
  MST Average: 1006.13 a.u.
mInfA, GTP 3.906 μM
  MST Average: 1021.73 a.u.
  MST Replicates (a.u.): 1021.53 a.u. and 1022.43 a.u. and 1021.24 a.u.
mInfA, GTP 7.812 μM
  MST Average: 1043.12 a.u.
  MST Replicates (a.u.): 1042.43 a.u. and 1043.93 a.u. and 1042.99 a.u.
mInfA, GTP 15.625 μM
  MST Average: 1059.58 a.u.
  MST Replicates (a.u.): 1058.78 a.u. and 1060.65 a.u. and 1059.32 a.u.
mInfA, GTP 31.25 μM
  MST Average: 1066.52 a.u.
  MST Replicates (a.u.): 1066.71 a.u. and 1066.40 a.u. and 1066.45 a.u.
mMF1, GTP 0.061 μM
  MST Average: 955.96 a.u.
  MST Replicates (a.u.): 954.37 a.u. and 956.60 a.u. and 956.92 a.u.
mMF1, GTP 0.122 μM
  MST Average: 960.57 a.u.
  MST Replicates (a.u.): 957.75 a.u. and 961.91 a.u. and 962.05 a.u.
mMF1, GTP 0.244 μM
  MST Average: 971.65 a.u.
  MST Replicates (a.u.): 968.94 a.u.
mMF1, GTP 1.953 μM
  MST Average: 1013.90 a.u.
mMF1, GTP 3.906 μM
  MST Average: 1027.63 a.u.
  MST Replicates (a.u.): 1022.88 a.u. and 1029.90 a.u. and 1030.12 a.u.
mMF1, GTP 7.812 μM
  MST Average: 1034.32 a.u.
  MST Replicates (a.u.): 1030.42 a.u. and 1036.20 a.u. and 1036.34 a.u.
mMF1, GTP 15.625 μM
  MST Average: 1039.20 a.u.
  MST Replicates (a.u.): 1035.40 a.u. and 1041.45 a.u. and 1040.76 a.u.
mMF1, GTP 31.25 μM
  MST Average: 1035.42 a.u.
  MST Replicates (a.u.): 1032.74 a.u. and 1036.98 a.u. and 1036.55 a.u.
mTufA vs mMF1
  KD of GTP with mTufA lower than with mMF1: about 2 fold
mTufA, GTP 0.244 μM
  MST Average: 1017.37 a.u.
mTufA, GTP 1.953 μM
  MST Average: 1082.32 a.u.
mTufA, GTP 3.906 μM
  MST Average: 1097.99 a.u.
  MST Replicates (a.u.): 1095.97 a.u. and 1098.36 a.u. and 1099.66 a.u.
mTufA, GTP 7.812 μM
  MST Average: 1113.91 a.u.
  MST Replicates (a.u.): 1111.40 a.u. and 1114.56 a.u. and 1115.76 a.u.
mTufA, GTP 15.625 μM
  MST Average: 1117.61 a.u.
  MST Replicates (a.u.): 1116.26 a.u. and 1117.65 a.u. and 1118.92 a.u.
mTufA, GTP 31.25 μM
  MST Average: 1112.61 a.u.
  MST Replicates (a.u.): 1112.94 a.u. and 1112.01 a.u. and 1112.88 a.u.
Nucleotide titration at constant IF2 (1 μM), read-out: KD for the IF2-bound 30S IC
  Kd: 500 ± 100 nM
